Values of other authors, collected in patent publication EP4582084A1, “CRYSTAL FORM OF KETOAMIDE DERIVATIVE AND PREPARATION METHOD THEREFOR” (Guangdong Raynovent Biotech Co., Ltd., priority 2022, dated 2024).

Test system: novel coronavirus
Details: in vitro, preclinical trials

## Cn1cnc(Cn2c(=O)[nH]/c(=N\c3cc4cn(C)nc4cc3Cl)n(Cc3cc(F)c(F)cc3F)c2=O)n1 [S-217622]
  EC50: 370 nM
